{"source": "patent US8993714B2", "about": "“Streptavidin macromolecular adaptor and complexes thereof” (Imiplex LLC, priority 2007, dated 2015)", "key": {"[1]": {"molecular_target": "T1, streptavidin (Streptomyces avidinii, UniProt P22629)", "T1 sequence (P22629 25-183)": "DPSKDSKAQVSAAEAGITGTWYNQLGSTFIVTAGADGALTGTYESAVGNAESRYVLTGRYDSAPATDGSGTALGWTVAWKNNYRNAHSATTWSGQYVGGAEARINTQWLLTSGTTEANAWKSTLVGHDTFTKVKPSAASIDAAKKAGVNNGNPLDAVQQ", "assay": "Ligand binding to the streptavidin biotin binding site (dissociation constant)", "from_the_text": "A strut can be formed from streptavidin (FIG. 1), a tetrameric protein of 60 kiloDalton molecular weight secreted by the bacterium Streptomyces avidinii. […] Part d designates two of the four bound biotins on the same “side” of the tetramer in space filling representation. Part e is a representation of the streptavidin tetramer surface showing overall molecular shape.\nFor example, the first and/or the second moiety can be an iminobiotin group. […] However, at pH values of less than or equal to about 4, the imino group on iminobiotin becomes charged, so that it is displaced from the streptavidin binding site. Thus, a structure can be temporarily formed using an iminobiotin-functionalized crosslinking reagent. […] Then, by lowering the pH below 4, the iminobiotin bonds can release, and components of the temporary structure can be washed away. Thus, a bifunctional crosslinking reagent with an iminobiotin group as the first and/or second moiety can be used to form a temporary scaffold, which assists in the construction of a permanent nanostructure.\nMore generally, the dyes can be used to monitor the assembly of streptavidin-linked nanostructures.\nMALDI or ESI MS can be used to characterize the species. […] FIGS. 34c and 34d show the structures of the 1:1 and 1:2 Azido-ATP-linked SAV:SAMA complexes. Spectroscopic methods can be used to monitor SAV:SAMA complex formation using a dye displacement approach and using DLS alone or combined with static light scattering."}, "[2]": {"assay": "Stability on 4-12% Bis-TRIS MOPS SDS PAGE after heating at 70° C. with reducing agent and SDS", "format": "physicochemical", "details": "70° C. for 10 minutes with reducing agent and SDS", "description": "We established optimal conditions for complex formation. One issue involved the existence of stable dimeric, trimeric and higher aggregates of streptavidin in most preparations (Sano & Cantor 1990b; Kurzban et al. 1991; Waner et al. 2004). We found the aggregates of liganded and unliganded streptavidin stable to heating at 70° C. and the liganded streptavidin aggregates also stable in SDS PAGE running buffers (FIG. 33). We exploited these features in a gel assay to help assess complexation in both denaturing and native gels (see FIG. 33). The left and middle panels of FIG. 33 show complexes of SAMA and streptavidin analyzed on 4-12% Bis-TRIS gels with 3-(N-Morpholino)propanesulfonic acid (MOPS) SDS running buffer. […] Prior to loading, samples were heated at 70° C. for 10 minutes together with reducing agent and SDS. Lanes are numbered on the top and the sample identity (SAMA and linking reagent) given below. Mark12 MW standards (Invitrogen) are in Lane 1. […] Schematics on the left indicate the electrophoretic mobilities of control molecules including the streptavidin monomer, derivatized and underivatized SAMA monomers, the streptavidin:biotin tetramer and higher order aggregates of the streptavidin:biotin tetramer. Brackets and schematics on the right indicate probable electrophoretic mobilities of SAMA:SAV complexes. […]"}, "[3]": {"molecular_target": "T1, streptavidin", "details": "neutral pH; read-out: iminobiotin dissociation constant; cited from earlier work"}}, "data": [{"compound": "O=C(O)c1ccccc1N=Nc1ccc(O)cc1", "note": "[HABA, 4′-hydroxyazobenzene-2-carboxylic acid]", "values": [{"measurement": "binds more weakly to streptavidin than biotin", "setting": "[1]", "result": "8 orders of magnitude"}, {"measurement": "binds more weakly to streptavidin than iminobiotin", "setting": "[1]", "result": "5 orders of magnitude"}]}, {"compound": "streptavidin: tetrameric protein of 60 kiloDalton secreted by Streptomyces avidinii with 4 biotin binding sites", "values": [{"measurement": "folded state under gel conditions", "setting": "[2]", "result": "denatured"}]}, {"compound": "N=C1N[C@H]2[C@H](CS[C@H]2CCCCC(=O)O)N1", "note": "[iminobiotin]", "values": [{"measurement": "Kd", "setting": "[3]", "result": "~0.01", "unit": "nM"}, {"measurement": "iminobiotin dissociation constant relative to biotin-streptavidin dissociation constant, orders of magnitude greater", "setting": "[1]", "result": "3 orders of magnitude"}]}]}
